Measurements: publication PMC11852235, “Discovery of Effective Inhibitors Against Phosphodiesterase 9, a Potential Therapeutic Target of Alzheimer’s Disease with Antioxidant Capacities” (Antioxidants, 2025)
pIC50: −log10 of the molar value. Where two headings read alike, the source gives them in different places.

Experiments:
HDAC6 = system: HDAC6; design: method as in PMID 31441641; conditions: Figure 1; cited from earlier work
PDE9 = conditions: cited from earlier work
AChE = system: AChE; design: method as in PMID 31250747; conditions: Figure 1; cited from earlier work
[1] = biological target: T1, PDE9 (catalytic domain of PDE9A2) (Homo sapiens, UniProt O76083); assay: Enzymatic assay against PDE9 (3H-cGMP hydrolysis, scintillation counting); type: biochemical; conditions: 0.25 h, read-out: Inhibition ratio against PDE9; for inhibition at 0.01 µM: at a concentration of 0.01 μM; for inhibition at 0.1 µM: at a concentration of 0.1 μM
T1 construct: PDE9 recombinant catalytic domain (amino acid 181–506); made in house; host or cells: E. coli BL21 (Codonplus)
T1 sequence (O76083 241-566): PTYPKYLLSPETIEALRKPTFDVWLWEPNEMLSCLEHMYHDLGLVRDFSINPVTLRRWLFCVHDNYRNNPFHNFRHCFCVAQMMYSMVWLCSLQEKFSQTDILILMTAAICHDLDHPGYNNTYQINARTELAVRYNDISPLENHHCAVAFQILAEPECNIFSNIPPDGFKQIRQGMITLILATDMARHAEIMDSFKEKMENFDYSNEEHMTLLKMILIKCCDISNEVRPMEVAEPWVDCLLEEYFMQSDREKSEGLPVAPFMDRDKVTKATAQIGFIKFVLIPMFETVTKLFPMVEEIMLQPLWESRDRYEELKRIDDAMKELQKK
Method: In brief, E. coli strain BL21 (Codonplus), which carrying with recombinant pET-PDE9A2 plasmid, was grown in LB medium (containing 100 μg/mL ampicillin and 0.4% glucose) at 37 °C until an OD600 achieved 0.6–0.8. Then, the temperature was turned down to 15 °C, and 0.1 mM iso-propyl-b-D-thiogalactopyranoside was added to LB medium to induce the expression of PDE9A2 protein. Bacteria were induced for 20 h and collected for purified PDE9A2 recombinant protein by a Ni-NTA column (Qiagen, Venlo, The Netherlands).
As for the enzymatic assays, ^3H-cGMP (20,000–30,000 cpm, GE Healthcare), the substrate for enzymatic assays against PDE9A2, were diluted in an assay buffer (containing 50 mM Tris-HCl (pH 8.0), 10 mM MgCl2, and 1 mM DTT). And then, the substrate ^3H-cGMP, catalytic domain of PDE9A2, and different concentrations of tested compounds were incubated at room temperature for 15 min. To terminate the reaction, 0.2 M ZnSO4 and 0.2 N Ba(OH)2 were added to the mixture, leaving unreacted ^3H-cGMP in the supernatant. […] Each compound was measured at a minimum of eight concentrations for the IC50 calculation and repeated at least three times.
4.Enzymatic assays against PDE9
The assay buffer contains 50 mM Tris-HCl (pH 8.0), 10 mM MgCl2 or 4 mM MnCl2, 1 mM DTT, and 10-20 nM 3H-cGMP (15000−30000 cpm/assay, CPM control). The reaction was carried out at room temperature for 15 min and then terminated by addition of 0.2 M ZnSO4. The reaction product 3H-GMP was precipitated out by […], whereas unreacted 3H-cGMP remained in the supernatant. The radioactivity in the supernatant was measured in 2.5 […]
(CPMenzyme). For the measurement of IC50 of inhibitors, at least seven concentrations of inhibitors were used in the presence of 3H-cGMP. The enzyme concentration in a range of 10− 100 ng/mL, which hydrolyzed 50- 70% of the substrate, was chosen for each inhibitory assay. The radioactivity was recorded as CPMinhibitor. The IC50 values for PDE9 were calculated using a nonlinear regression analysis.
Inhibition = […] × 100%

[2] = Antioxidant activity, ORAC-FL method; conditions: Trolox as standard
Method: The modified Oxygen Radical Absorbance Capacity Fluorescein (ORAC-FL) method was used for antioxidant activity test. In brief, the mixture of test compounds (20 μL) and fluorescein (120 μL, final concentration of 150 nM) was added into a black 96-well plate and incubated for 15 min at 37 °C. Then, 60 μL of 2,2′-azobis(2-amidinopropane) dihydrochloride (AAPH) solution (12 mM) was added rapidly to induce the reaction. The fluorescence with an excitation wavelength of 485 nm and emission at 535 nm was measured in Spectrafluor Plus plate reader (Tecan, Crailsheim, Germany) every minute for 4 h. Integration of the area under the curve (AUC) was […] 1 to 8 μM Trolox was used as a standard. Each compound was tested at 1–10 μM at least in three independent assays. The ORAC-FL values of each compound were calculated according to Equation (1) and expressed as Trolox equivalents.(1) ORAC-FL value=AUCsample−AUCblank/AUCTrolox−AUCblank×ConcentrationTrolox/Concentrationsample

BuChE = system: BuChE; design: method as in PMID 31250747; conditions: Figure 1; cited from earlier work
[3] = Figure 1, current PDE9 inhibitors

Row | inhibition at 0.01 µM [1] [%] | inhibition at 0.1 µM [1] [%] | Compound | pIC50 (PDE9; [3]) | ORAC [2] | further results
1 |  |  | C[C@@H]1CN(Cc2ccc(C(=O)NO)cc2)C[C@H]1c1nc2c(cnn2C2CCCC2)c(=O)[nH]1 [Compound 6] | 6.97 |  | pIC50 (HDAC6): 7.40
2 |  |  | CC(Nc1nc2c(cnn2C2CCCC2)c(=O)[nH]1)c1ccc(Cl)cc1 (stereo not shown) [Compound C33] |  |  | pIC50 (PDE9; previously reported): 7.80
3 |  |  | O=c1[nH]c(COCCC2CCN(Cc3ccccc3)CC2)nc2c1cnn2C1CCCC1 [Compound 5] | 6.55 |  | pIC50 (AChE): 6.65
4 |  |  | O=c1[nH]c(Cc2ccccn2)nc2c1cnn2C1CCOCC1 [Compound 2, Osoresnontrine] | 7.19 |  | 
5 | 67 | 83 | CC(CCc1c[nH]c2ccccc12)Nc1nc2c(cnn2C2CCCC2)c(=O)[nH]1 (stereo not shown) [Compound 17e, 6-((4-(1H-indol-3-yl)butan-2-yl)amino)-1-cyclopentyl-1,5-dihydro-4H-pyrazolo[3,4-d]pyrimidin-4-one] |  | 0.33 ± 0.002 μmol of Trolox equiv/μmol tested compound | 
6 | 68 | 78 | CC(Cc1c[nH]c2ccccc12)Nc1nc2c(cnn2C2CCCC2)c(=O)[nH]1 (stereo not shown) [Compound 17a, 6-((1-(1H-indol-3-yl)propan-2-yl)amino)-1-cyclopentyl-1,5-dihydro-4H-pyrazolo[3,4-d]pyrimidin-4-one] |  | 0.37 ± 0.04 μmol of Trolox equiv/μmol tested compound | 
7 | 59 | 67 | CC(CC1CNc2ccccc21)Nc1nc2c(cnn2C2CCCC2)c(=O)[nH]1 (stereo not shown) [Compound 17f, 1-cyclopentyl-6-((1-(indolin-3-yl)propan-2-yl)amino)-1,5-dihydro-4H-pyrazolo[3,4-d]pyrimidin-4-one] |  | 0.66 ± 0.04 μmol of Trolox equiv/μmol tested compound | 
8 |  | < 30 | COc1ccc2[nH]nc(CN[C@H](C)c3nc4c(cnn4C4CCCC4)c(=O)[nH]3)c2c1 [Compound 18f, (R)-1-cyclopentyl-6-(1-(((5-methoxy-1H-indazol-3-yl)methyl)amino)ethyl)-1,5-dihydro-4H-pyrazolo[3,4-d]pyrimidin-4-one] |  | 0.24 ± 0.02 μmol of Trolox equiv/μmol tested compound | 
9 |  |  | COc1cc(CNc2nc3c(cnn3C3CCCC3)c(=O)[nH]2)ccc1OC(=O)N(C)C [Compound 4] | 7.77 |  | pIC50 (BuChE): 6.02
